Results taken from patent US20250313563A1, “GLYCOGEN SYNTHASE KINASE 3 INHIBITORS AND USES THEREOF” (The Broad Institute, Inc., priority 2022, published 2025).
pIC50: −log10 of the molar value. Where two headings read alike, the source gives them in different places.

Legend:
[1] = biological target: GSK3α (GST-full length GSK3α) (Homo sapiens (Human), UniProt P49840); test: GSK3α TR-FRET kinase assay; type: biochemical
Summary of the method: (§1)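 Compound was preincubated 30 min with 1 nM GST-GSK3 enzyme. Reaction ran 100 min at ambient temperature in Tris pH 7.5/MgCl2 with 200 nM biotinylated pS645-glycogen synthase 631-650 peptide and ATP (4 μM GSK3α, 2 μM GSK3b, or 1 mM). The EDTA-stopped reaction was read by TR-FRET (Tb-anti-pSer641/streptavidin-d2), and IC50s were fitted.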

[2] = biological target: GSK3b (GST-full length GSK3b) (Homo sapiens (Human), UniProt P49841); test: GSK3b TR-FRET kinase assay; type: biochemical
Summary of the method: as §1

[3] = 1 nM GSK3α, 4 μM ATP, 30 minute preincubation, read-out: GSK3-A TR-FRET BIOCHEMICAL (TR-FRET), IC50
[4] = read-out: GSK3-A (TR-FRET 1 mM ATP), GMean, IC50, 1 mM ATP, geometric mean
[5] = 1 nM GSK3b, 2 μM ATP, 30 minute preincubation, read-out: GSK3-B TR-FRET BIOCHEMICAL (TR-FRET), IC50
[6] = read-out: GSK3-B (TR-FRET 1 mM ATP), GMean, IC50, 1 mM ATP, geometric mean
[7] = 1 nM GSK3α, 4 μM ATP, 30 minute preincubation, Table 16, read-out: GSK3-A TR-FRET BIOCHEMICAL (TR-FRET), IC50
[8] = 1 nM GSK3b, 2 μM ATP, 30 minute preincubation, Table 16, read-out: GSK3-B TR-FRET BIOCHEMICAL (TR-FRET), IC50
[9] = 1 nM GSK3α, 4 μM ATP, 30 minute preincubation, Table 16, read-out: GSK3-A TR-FRET BIOCHEMICAL (TR-FRET)
[10] = 1 nM GSK3b, 2 μM ATP, 30 minute preincubation, Table 16, read-out: GSK3-B TR-FRET BIOCHEMICAL (TR-FRET)

GSK3b (GST-full length GSK3b), sequence (P49841 whole entry): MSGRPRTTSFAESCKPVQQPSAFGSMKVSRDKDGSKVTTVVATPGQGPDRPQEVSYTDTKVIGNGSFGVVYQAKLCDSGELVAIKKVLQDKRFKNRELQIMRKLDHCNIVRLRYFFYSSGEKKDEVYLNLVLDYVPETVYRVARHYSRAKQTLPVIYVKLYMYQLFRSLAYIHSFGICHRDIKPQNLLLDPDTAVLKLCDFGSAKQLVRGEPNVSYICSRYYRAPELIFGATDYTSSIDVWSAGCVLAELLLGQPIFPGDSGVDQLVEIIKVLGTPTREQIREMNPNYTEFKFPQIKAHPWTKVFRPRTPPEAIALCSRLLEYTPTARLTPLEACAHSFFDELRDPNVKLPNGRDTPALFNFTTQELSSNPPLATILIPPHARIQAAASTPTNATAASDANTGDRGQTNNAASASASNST
GSK3α (GST-full length GSK3α), sequence (P49840 whole entry): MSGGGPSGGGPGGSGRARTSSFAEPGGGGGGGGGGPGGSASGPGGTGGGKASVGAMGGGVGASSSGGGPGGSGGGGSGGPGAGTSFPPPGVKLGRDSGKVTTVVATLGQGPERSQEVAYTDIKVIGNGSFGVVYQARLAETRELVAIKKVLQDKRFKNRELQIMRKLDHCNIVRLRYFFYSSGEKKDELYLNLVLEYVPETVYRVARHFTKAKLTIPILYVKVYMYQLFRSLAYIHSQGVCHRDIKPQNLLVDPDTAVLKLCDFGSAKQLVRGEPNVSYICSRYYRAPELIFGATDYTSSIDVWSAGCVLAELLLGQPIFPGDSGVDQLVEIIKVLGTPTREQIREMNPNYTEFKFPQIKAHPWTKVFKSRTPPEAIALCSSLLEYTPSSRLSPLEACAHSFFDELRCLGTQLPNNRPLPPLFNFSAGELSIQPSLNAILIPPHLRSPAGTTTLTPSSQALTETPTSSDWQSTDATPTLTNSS

| Compound | pIC50 [1, 7] | pIC50 [2, 8] | further results |
| --- | --- | --- | --- |
| CCC1(c2cccc(-c3ccnc(C)c3)c2)C2=C(CC(C)(C)NC2=O)Nc2n[nH]cc21 (stereo not drawn) [Compound 927325] | – | – | pIC50 [1, 3]: ≥ 7.00; pIC50 [1, 4]: 6.00 to 7.00; pIC50 [2, 5]: 6.00 to 7.00; pIC50 [2, 6]: < 5.30 |
| CC[C@@]1(c2cccc(-c3ccnc(C)c3F)c2)C2=C(CC(C)(C)CC2=O)Nc2n[nH]c(C)c21 [Compound 927340] | < 5.30 | < 5.30 | – |
| CC1(C)CC(=O)C2=C(C1)Nc1n[nH]cc1C21CCCS(=O)(=O)CC1 (stereo not drawn) [Compound 927343] | – | – | pIC50 [1, 9]: ≥ 7.00; pIC50 [2, 10]: 6.00 to 7.00 |
| CC[C@]1(c2cccc(-c3ccnn3C)c2)C2=C(CC(C)(C)NC2=O)Nc2n[nH]cc21 [Compound 927390] | – | – | pIC50 [1, 3]: 6.00 to 7.00; pIC50 [2, 5]: < 5.30 |
| CCC1(c2cccc(C(F)(F)F)c2)C2=C(CN(Cc3ccccc3)C2=O)Nc2n[nH]cc21 (stereo not drawn) [Compound 929388] | – | – | pIC50 [1, 4]: 6.00 to 7.00; pIC50 [2, 10]: 6.00 to 7.00; pIC50 [2, 6]: < 5.30 |
| CC1(C)CC(=O)C2=C(C1)Nc1n[nH]cc1C21CN(Cc2ccccc2)C1 [Compound 929436] | < 5.30 | < 5.30 | – |
| CC1(C)CC(=O)C2=C(C1)Nc1n[nH]cc1C21CCN(S(=O)(=O)Cc2ccccc2)CC1 [Compound 929437] | – | – | pIC50 [1, 3]: ≥ 7.00; pIC50 ([1]; GSK3-A (TR-FRET 1 mM ATP), GMean, IC50, 1 mM ATP, geometric mean): ≥ 7.00; pIC50 [2, 5]: ≥ 7.00; pIC50 ([2]; GSK3-B (TR-FRET 1 mM ATP), GMean, IC50, 1 mM ATP, geometric mean): 6.00 to 7.00 |
| CC1(C)CC(=O)C2=C(C1)Nc1n[nH]cc1C21CN(Cc2ccccn2)C1 [Compound 929438] | < 5.30 | < 5.30 | – |
| Cn1cc(CN2CC3(C2)C2=C(CC(C)(C)CC2=O)Nc2n[nH]cc23)cn1 [Compound 929439] | < 5.30 | < 5.30 | – |
| CC1(C)CC(=O)C2=C(C1)Nc1n[nH]cc1C21CN(S(=O)(=O)CC2CC2)C1 [Compound 929440] | – | – | pIC50 [1, 9]: ≥ 7.00; pIC50 [2, 10]: ≥ 7.00 |
| CC1(C)CC(=O)C2=C(C1)Nc1n[nH]cc1C21CN(CCc2ccccc2)C1 [Compound 929441] | < 5.30 | < 5.30 | – |
| CC[C@@]1(c2cccc(-c3ccnnc3)c2)C2=C(CC(C)(C)CC2=O)Nc2n[nH]cc21 [Compound 929443] | < 5.30 | < 5.30 | – |
| CCCS(=O)(=O)c1cccc(C2(CC)C3=C(CC(C)(C)CC3=O)Nc3n[nH]cc32)c1 (stereo not drawn) [Compound 929447] | – | – | pIC50 [1, 4]: ≥ 7.00; pIC50 [2, 6]: 6.00 to 7.00 |
| CCN1CC2(C1)C1=C(CC(C)(C)CC1=O)Nc1n[nH]cc12 [Compound 929448] | < 5.30 | < 5.30 | – |
| CCC1(c2cccc(N3CCc4cnccc4C3)c2)C2=C(CC(C)(C)CC2=O)Nc2n[nH]cc21 (stereo not drawn) [Compound 929449] | 5.30 to 6.00 | 5.30 to 6.00 | – |
| CC[C@]1(c2cc(N(C)C(C)=O)ccc2F)C2=C(CC(C)(C)CC2=O)Nc2n[nH]c(C)c21 [Compound 929451] | < 5.30 | < 5.30 | – |
| CC[C@]1(c2cccc(N(C)c3ccnc(F)c3)c2)C2=C(CC(C)(C)CC2=O)Nc2n[nH]cc21 [Compound 929453] | 5.30 to 6.00 | < 5.30 | – |
| CC[C@@]1(c2cccc(N(C)C(=O)c3ccn(C)n3)c2)C2=C(CC(C)(C)CC2=O)Nc2n[nH]cc21 [Compound 929455] | < 5.30 | < 5.30 | – |
| CCC1(c2cccc(C(F)(F)F)c2)C2=C(CCN(c3ccccc3)C2=O)Nc2n[nH]cc21 (stereo not drawn) [Compound 929474] | – | – | pIC50 [1, 3]: ≥ 7.00; pIC50 [2, 5]: 6.00 to 7.00 |
| CC[C@]1(c2cccc(C(F)(F)F)c2)C2=C(CCN(c3ccccc3)C2=O)Nc2n[nH]cc21 [Compound 929475] | – | – | pIC50 [1, 3]: < 5.30; pIC50 [2, 5]: < 5.30 |
| CC[C@@]1(c2cccc(C(F)(F)F)c2)C2=C(Nc3n[nH]cc31)[C@@H](C)N(Cc1ccccc1)C2=O [Compound 930330] | – | – | pIC50 [1, 3]: ≥ 7.00; pIC50 [2, 5]: 6.00 to 7.00 |
| CC[C@@]1(c2cccc(C(F)(F)F)c2)C2=C(Nc3n[nH]cc31)[C@H](C)N(Cc1ccccc1)C2=O [Compound 930331] | – | – | pIC50 [1, 3]: ≥ 7.00; pIC50 [2, 5]: 6.00 to 7.00 |
| CC[C@]1(c2cccc(C(F)(F)F)c2)C2=C(Nc3n[nH]cc31)[C@H](C)N(Cc1ccccc1)C2=O [Compound 930333] | – | – | pIC50 [1, 3]: < 5.30; pIC50 [2, 5]: < 5.30 |
| CC1(C)CC(=O)C2=C(C1)Nc1n[nH]cc1C21CCCN(S(=O)(=O)Cc2ccccc2)CC1 (stereo not drawn) [Compound 932632] | – | – | pIC50 [1, 9]: ≥ 7.00; pIC50 [2, 10]: 6.00 to 7.00 |
| CC1(C)CC(=O)C2=C(C1)Nc1n[nH]cc1C21CCCN(c2ccncc2)CC1 (stereo not drawn) [Compound 932633] | < 5.30 | < 5.30 | – |
| CCC1(c2cccc(-c3ccnc(C)c3)c2)C2=C(CC(C)CC2=O)Nc2n[nH]cc21 (stereo not drawn) [Compound 932637] | < 5.30 | < 5.30 | – |
| CCC1(c2cccc(-c3ccnc(C)c3)c2)C2=C(CC(C)CC2=O)Nc2n[nH]cc21 (stereo not drawn) [Compound 932638] | < 5.30 | < 5.30 | – |

The next lines start with results.

| pIC50 [1, 7] | pIC50 [2, 8] | Compound | further results |
| --- | --- | --- | --- |
| 5.30 to 6.00 | < 5.30 | CCC1(c2cccc(-c3cc(C)ncc3F)c2)C2=C(CC(C)(C)CC2=O)Nc2n[nH]cc21 (stereo not drawn) [Compound 927339] | – |
| 5.30 to 6.00 | 5.30 to 6.00 | CCC1(c2cccc(NS(C)(=O)=O)c2)C2=C(CC(C)(C)CC2=O)Nc2n[nH]cc21 (stereo not drawn) [Compound 927341] | – |
| ≥ 7.00 | ≥ 7.00 | CCC1(c2cccc(-c3ccnnc3)c2)C2=C(CC(C)(C)CC2=O)Nc2n[nH]cc21 (stereo not drawn) [Compound 927342] | – |
| ≥ 7.00 | ≥ 7.00 | CCC1(c2cccc(S(=O)(=O)C3CCOCC3)c2)C2=C(CC(C)(C)CC2=O)Nc2n[nH]cc21 (stereo not drawn) [Compound 927344] | – |
| ≥ 7.00 | ≥ 7.00 | CCC1(c2cccc(-c3cc(C)ncc3F)c2)C2=C(CC(C)(C)CC2=O)Nc2n[nH]cc21 (stereo not drawn) [Compound 927346] | pIC50 [1, 4]: ≥ 7.00; pIC50 [2, 6]: 5.30 to 6.00 |
| ≥ 7.00 | ≥ 7.00 | CCC1(c2cccc(N(C)c3nccc(OC)n3)c2)C2=C(CC(C)(C)CC2=O)Nc2n[nH]cc21 (stereo not drawn) [Compound 929387] | – |
| ≥ 7.00 | ≥ 7.00 | CCn1nccc1-c1cccc(C2(CC)C3=C(CC(C)(C)CC3=O)Nc3n[nH]cc32)c1 (stereo not drawn) [Compound 929398] | – |
| ≥ 7.00 | ≥ 7.00 | CCC1(c2cccc(-c3ccnn3C(C)C)c2)C2=C(CC(C)(C)CC2=O)Nc2n[nH]cc21 (stereo not drawn) [Compound 929399] | – |
| ≥ 7.00 | ≥ 7.00 | CCC1(c2cccc(-c3ccnn3CCC(C)C)c2)C2=C(CC(C)(C)CC2=O)Nc2n[nH]cc21 (stereo not drawn) [Compound 929401] | – |
| ≥ 7.00 | 6.00 to 7.00 | CCC1(c2cccc(-c3cc(C)nn3C)c2)C2=C(CC(C)(C)CC2=O)Nc2n[nH]cc21 (stereo not drawn) [Compound 929402] | – |
| ≥ 7.00 | 6.00 to 7.00 | CC[C@]1(c2cccc(N(C)C(=O)c3ccn(C)n3)c2)C2=C(CC(C)(C)CC2=O)Nc2n[nH]cc21 [Compound 929442] | – |
| 5.30 to 6.00 | < 5.30 | CCc1cc(-c2cccc(C3(CC)C4=C(CC(C)(C)CC4=O)Nc4n[nH]cc43)c2)cc(CC)n1 (stereo not drawn) [Compound 929445] | – |
| 5.30 to 6.00 | 5.30 to 6.00 | CC1(C)CC(=O)C2=C(C1)Nc1n[nH]cc1C21CN(C2CCCCC2)C1 [Compound 929446] | – |
| ≥ 7.00 | ≥ 7.00 | CC[C@]1(c2cccc(-c3ccnnc3)c2)C2=C(CC(C)(C)CC2=O)Nc2n[nH]cc21 [Compound 929454] | pIC50 [1, 4]: 6.00 to 7.00; pIC50 [2, 6]: 5.30 to 6.00 |
| 5.30 to 6.00 | < 5.30 | CC1(C)CC(=O)C2=C(C1)Nc1n[nH]cc1[C@@]21CCCc2ccccc21 [Compound 930565] | – |
| ≥ 7.00 | 6.00 to 7.00 | CC1(C)CC(=O)C2=C(C1)Nc1n[nH]cc1[C@]21CCCc2ccccc21 [Compound 930566] | – |
| ≥ 7.00 | ≥ 7.00 | CCC1(c2cccc(-c3ccnc4c3CCCC4)c2)C2=C(CC(C)(C)CC2=O)Nc2n[nH]cc21 (stereo not drawn) [Compound 932625] | – |
| 6.00 to 7.00 | 6.00 to 7.00 | CCC1(c2cccc(-c3ccnc(OC(C)C)c3)c2)C2=C(CC(C)(C)CC2=O)Nc2n[nH]cc21 (stereo not drawn) [Compound 932626] | – |
| ≥ 7.00 | ≥ 7.00 | CCC1(c2cccc(-c3ccncc3OC)c2)C2=C(CC(C)(C)CC2=O)Nc2n[nH]cc21 (stereo not drawn) [Compound 932627] | – |
| ≥ 7.00 | 6.00 to 7.00 | CCC1(c2cccc(-c3ccnc(OC)c3C)c2)C2=C(CC(C)(C)CC2=O)Nc2n[nH]cc21 (stereo not drawn) [Compound 932628] | – |
| ≥ 7.00 | 6.00 to 7.00 | CCC1(c2cccc(-c3ccnc(OC(F)F)c3)c2)C2=C(CC(C)(C)CC2=O)Nc2n[nH]cc21 (stereo not drawn) [Compound 932629] | – |
| ≥ 7.00 | ≥ 7.00 | CCC1(c2cccc(-c3cc(OC)ncc3F)c2)C2=C(CC(C)(C)CC2=O)Nc2n[nH]cc21 (stereo not drawn) [Compound 932630] | – |
| ≥ 7.00 | ≥ 7.00 | CCC1(c2cccc(-c3ccnc4ccccc34)c2)C2=C(CC(C)(C)CC2=O)Nc2n[nH]cc21 (stereo not drawn) [Compound 932631] | – |
| ≥ 7.00 | 6.00 to 7.00 | CCC1(c2cccc(N(C)c3ccc(C(F)(F)F)nc3)c2)C2=C(CC(C)(C)CC2=O)Nc2n[nH]cc21 (stereo not drawn) [Compound 932634] | – |
